Values of other authors, collected in patent EP1541129A1, “Pharmaceutical effervescent formulation comprising amoxycillin and clavulanic acid” (Cimex AG, priority 2003, dated 2005).

Settings: freely water-soluble

Structure (SMILES): O=C(O)[C@H]1/C(=C/CO)O[C@@H]2CC(=O)N21 [Potassium clavulanate, potassium clavulanate]
- solubility in water: about 1 part of water for 1 part of solute
